The test system of one test is JURKAT. The test is described as follows: selective drug sensitivity score (sDSS, relative to normal bone marrow) (sDSS (score)); higher = more potent and effective on the cell line relative to normal bone marrow cells. The settings on record: 72 h.
Consider `Cc1ccc(NC(=O)c2ccc(CN3CCN(C)CC3)cc2)cc1Nc1nc(-c2cccnc2)cs1` [Masitinib] (top concentration 10000 nM), for which the “selective drug sensitivity score” value came to 0.92.
Take `CCN(CC)CCCC(C)Nc1c2ccc(Cl)cc2nc2ccc(OC)cc12` (stereo not given) [Mepacrine] (top concentration 50000 nM): the “selective drug sensitivity score” value was -7.7.
Still for that read-out and setting: the figure for `COc1ccc(-c2ccc3ncc4c(c3c2)n(-c2ccc(N3CCNCC3)c(C(F)(F)F)c2)c(=O)n4C)cn1` [NVP-BGT226] (top concentration 1000 nM) is 2.82; for `COc1nc(N)nc2c1ncn2[C@@H]1O[C@H](CO)[C@@H](O)[C@@H]1O` [Nelarabine] (top concentration 10000 nM) it is -0.12; for `Cc1cn(-c2cc(NC(=O)c3ccc(C)c(Nc4nccc(-c5cccnc5)n4)c3)cc(C(F)(F)F)c2)cn1` [Nilotinib] (top concentration 10000 nM) it is 1.1.
Same read-out and setting: the figure for `NC(=O)c1cccc2cn(-c3ccc(C4CCCNC4)cc3)nc12` (stereo not given) [Niraparib] (top concentration 10000 nM) is 0.38; for `COc1ccc(C[C@H](NC(=O)[C@H](C)NC(=O)CN2CCOCC2)C(=O)N[C@@H](Cc2ccccc2)C(=O)[C@@]2(C)CO2)cc1` [ONX-0914] (top concentration 10000 nM) it is -4.4; for `CC(=O)c1cnc2ccc(-c3cc(Cl)c(O)c(Cl)c3)nc2c1N[C@H]1CC[C@H](CN(C)C)CC1` [OTS167] (top concentration 1000 nM) it is -3.52.
Turning to `COC(=O)C[C@](O)(CCCC(C)(C)O)C(=O)O[C@@H]1C(OC)=C[C@]23CCCN2CCc2cc4c(cc2[C@H]13)OCO4` [Omacetaxine] (top concentration 10000 nM), the “selective drug sensitivity score” value was -0.48.

The subject of a further test is KARPAS-45. Described as above. The settings on record: 72 h.
Take `CCOC(=O)CCNc1cc(N2CCc3ccccc3CC2)nc(-c2ccccn2)n1` [GSK-J4] (top concentration 100000 nM): the “selective drug sensitivity score” value was -7.28.
Same read-out and setting: the figure for `Cc1cc(Nc2cc(CN3CCOCC3)c3nc(C)c(Cc4ccc(Cl)cc4F)n3n2)n[nH]1` [Gandotinib] (top concentration 10000 nM) is 9.48; for `NC(=O)NO` [Hydroxyurea] (top concentration 1000000 nM) it is 2.86.
Take `Cc1ccc(NC(=O)c2ccc(CN3CCN(C)CC3)cc2)cc1Nc1nccc(-c2cccnc2)n1` [Imatinib] (top concentration 10000 nM): the “selective drug sensitivity score” value is 1.96.
Regarding `CC(C)NC[C@@H](C(=O)N1CCN(c2ncnc3c2[C@H](C)C[C@H]3O)CC1)c1ccc(Cl)cc1` [Ipatasertib] (top concentration 10000 nM), the “selective drug sensitivity score” value is 5.2.
For `CCC(C)n1ncn(-c2ccc(N3CCN(c4ccc(OCC5COC(Cn6cncn6)(c6ccc(Cl)cc6Cl)O5)cc4)CC3)cc2)c1=O` (stereo not given) [Itraconazole] (top concentration 5000 nM), the “selective drug sensitivity score” value turned out to be 6.18.
Still for that read-out and setting: the figure for `Cc1sc2c(c1C)C(c1ccc(Cl)cc1)=N[C@@H](CC(=O)OC(C)(C)C)c1nnc(C)n1-2` [JQ1] (top concentration 10000 nM) is 9.32.
On to `CCNC(=O)c1noc(-c2cc(C(C)C)c(O)cc2O)c1-c1ccc(CN2CCOCC2)cc1` [Luminespib] (top concentration 1000 nM), for which the “selective drug sensitivity score” value is -2.7.
On the same count and under the same terms, the figure for `O=C(c1cccc(Cl)c1F)N1CCN(Cc2cccc(Nc3nccs3)n2)CC1` [MK-8745] (top concentration 10000 nM) is 23.8.
On the same count and under the same terms, the figure for `Cc1ccc(NC(=O)c2ccc(CN3CCN(C)CC3)cc2)cc1Nc1nc(-c2cccnc2)cs1` [Masitinib] (top concentration 10000 nM) is 3.22.
Turning to `CCN(CC)CCCC(C)Nc1c2ccc(Cl)cc2nc2ccc(OC)cc12` (stereo not given) [Mepacrine] (top concentration 50000 nM), the “selective drug sensitivity score” value was -0.8.
`COc1ccc(-c2ccc3ncc4c(c3c2)n(-c2ccc(N3CCNCC3)c(C(F)(F)F)c2)c(=O)n4C)cn1` [NVP-BGT226] (top concentration 1000 nM): the “selective drug sensitivity score” value turned out to be 3.42.
On to `COc1nc(N)nc2c1ncn2[C@@H]1O[C@H](CO)[C@@H](O)[C@@H]1O` [Nelarabine] (top concentration 10000 nM), for which the “selective drug sensitivity score” value was -9.92.
The same measure, in the same setting: the figure for `Cc1cn(-c2cc(NC(=O)c3ccc(C)c(Nc4nccc(-c5cccnc5)n4)c3)cc(C(F)(F)F)c2)cn1` [Nilotinib] (top concentration 10000 nM) is 4.2; for `NC(=O)c1cccc2cn(-c3ccc(C4CCCNC4)cc3)nc12` (stereo not given) [Niraparib] (top concentration 10000 nM) it is -0.62.
On the same count and under the same terms, the figure for `COc1ccc(C[C@H](NC(=O)[C@H](C)NC(=O)CN2CCOCC2)C(=O)N[C@@H](Cc2ccccc2)C(=O)[C@@]2(C)CO2)cc1` [ONX-0914] (top concentration 10000 nM) is 1.8; for `CC(=O)c1cnc2ccc(-c3cc(Cl)c(O)c(Cl)c3)nc2c1N[C@H]1CC[C@H](CN(C)C)CC1` [OTS167] (top concentration 1000 nM) it is 0.58.
`COC(=O)C[C@](O)(CCCC(C)(C)O)C(=O)O[C@@H]1C(OC)=C[C@]23CCCN2CCc2cc4c(cc2[C@H]13)OCO4` [Omacetaxine] (top concentration 10000 nM): the “selective drug sensitivity score” value worked out at 3.72.

Another test has as its system KOPN-8. Described as above. The settings on record: 72 h.
Turning to `CCOC(=O)CCNc1cc(N2CCc3ccccc3CC2)nc(-c2ccccn2)n1` [GSK-J4] (top concentration 100000 nM), the “selective drug sensitivity score” value was -8.88.
For `Cc1cc(Nc2cc(CN3CCOCC3)c3nc(C)c(Cc4ccc(Cl)cc4F)n3n2)n[nH]1` [Gandotinib] (top concentration 10000 nM), the “selective drug sensitivity score” value came to 8.28.
On the same count and under the same terms, the figure for `NC(=O)NO` [Hydroxyurea] (top concentration 1000000 nM) is 11.9.
For `Cc1ccc(NC(=O)c2ccc(CN3CCN(C)CC3)cc2)cc1Nc1nccc(-c2cccnc2)n1` [Imatinib] (top concentration 10000 nM), the “selective drug sensitivity score” value was -0.04.
On the same count and under the same terms, the figure for `CC(C)NC[C@@H](C(=O)N1CCN(c2ncnc3c2[C@H](C)C[C@H]3O)CC1)c1ccc(Cl)cc1` [Ipatasertib] (top concentration 10000 nM) is 4.3; for `CCC(C)n1ncn(-c2ccc(N3CCN(c4ccc(OCC5COC(Cn6cncn6)(c6ccc(Cl)cc6Cl)O5)cc4)CC3)cc2)c1=O` (stereo not given) [Itraconazole] (top concentration 5000 nM) it is 13.1; for `Cc1sc2c(c1C)C(c1ccc(Cl)cc1)=N[C@@H](CC(=O)OC(C)(C)C)c1nnc(C)n1-2` [JQ1] (top concentration 10000 nM) it is 11.7.
In the case of `CCNC(=O)c1noc(-c2cc(C(C)C)c(O)cc2O)c1-c1ccc(CN2CCOCC2)cc1` [Luminespib] (top concentration 1000 nM), the “selective drug sensitivity score” value stood at 6.7.
On the same count and under the same terms, the figure for `O=C(c1cccc(Cl)c1F)N1CCN(Cc2cccc(Nc3nccs3)n2)CC1` [MK-8745] (top concentration 10000 nM) is 13.2; for `Cc1ccc(NC(=O)c2ccc(CN3CCN(C)CC3)cc2)cc1Nc1nc(-c2cccnc2)cs1` [Masitinib] (top concentration 10000 nM) it is -1.58; for `CCN(CC)CCCC(C)Nc1c2ccc(Cl)cc2nc2ccc(OC)cc12` (stereo not given) [Mepacrine] (top concentration 50000 nM) it is 0.1.
Still for that read-out and setting: the figure for `COc1ccc(-c2ccc3ncc4c(c3c2)n(-c2ccc(N3CCNCC3)c(C(F)(F)F)c2)c(=O)n4C)cn1` [NVP-BGT226] (top concentration 1000 nM) is 9.52; for `COc1nc(N)nc2c1ncn2[C@@H]1O[C@H](CO)[C@@H](O)[C@@H]1O` [Nelarabine] (top concentration 10000 nM) it is -7.82.
With `Cc1cn(-c2cc(NC(=O)c3ccc(C)c(Nc4nccc(-c5cccnc5)n4)c3)cc(C(F)(F)F)c2)cn1` [Nilotinib] (top concentration 10000 nM), the “selective drug sensitivity score” value turned out to be 9.7.
For the molecule `NC(=O)c1cccc2cn(-c3ccc(C4CCCNC4)cc3)nc12` (stereo not given) [Niraparib] (top concentration 10000 nM), the “selective drug sensitivity score” value worked out at 16.1.
As for `COc1ccc(C[C@H](NC(=O)[C@H](C)NC(=O)CN2CCOCC2)C(=O)N[C@@H](Cc2ccccc2)C(=O)[C@@]2(C)CO2)cc1` [ONX-0914] (top concentration 10000 nM), the “selective drug sensitivity score” value worked out at 1.5.
In the case of `CC(=O)c1cnc2ccc(-c3cc(Cl)c(O)c(Cl)c3)nc2c1N[C@H]1CC[C@H](CN(C)C)CC1` [OTS167] (top concentration 1000 nM), the “selective drug sensitivity score” value was found to be 5.68.
Still for that read-out and setting: the figure for `COC(=O)C[C@](O)(CCCC(C)(C)O)C(=O)O[C@@H]1C(OC)=C[C@]23CCCN2CCc2cc4c(cc2[C@H]13)OCO4` [Omacetaxine] (top concentration 10000 nM) is 5.02.

The record behind these values is the supplement of paper PMC8967900.
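Also: ALL cell lines in 384-well plates, five doses spanning 10,000-fold, each plate scaled between vehicle and 100 µmol/L benzalkonium chloride controls, sDSS an adapted area-under-curve metric.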
